One test addresses MTH1 (Homo sapiens, UniProt P36639). The test can be described thus: MTH1 enzymatic assay and IC50 value determination (malachite green, 96- and 384-well format). The format is biochemical. The following applies: hydrolysis of dGTP (100 μM), MTH1 6 nM, pyrophosphatase-coupled malachite green, 15 minutes at 22° C. The procedure, abridged:
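MTH1 (6 nM) hydrolysed dGTP (100 μM) for 15 min at 22 °C in Tris-acetate buffer with Mg2+, DTT, Tween 20 and excess pyrophosphatase, 1% DMSO. Pi detected with malachite green at 630 nm. IC50 from nonlinear 4-parameter fit of 11–12-point dilution series.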

The next test concerns cancer cell. Description: Cell viability assay (resazurin). Type of test: cell-based. The conditions noted are these: 72 h; 3 days with compound, resazurin fluorescence; cell line not named. The procedure, abridged:
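Cells in DMEM GlutaMAX or line-appropriate medium are exposed to compound for 3 days at 37 °C, 5% CO2. Viability is read as resazurin fluorescence (Ex544/Em590) after 2 h incubation. In the 384-well format, cells are seeded onto 11 pre-dispensed concentrations (final DMSO <1%) and read after 3 h resazurin.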

Our source for the IC50 values is US10179790B2 (THOMAS HELLEDAYS STIFTELSE FOR MEDICINSK FORSKNING, priority 2014, dated 2019).

pIC50: −log10 of the molar value.

Turning to `Cc1c(Cl)cccc1-c1cc(NCCc2cccc(NC(=O)C(C)(C)C)c2)nc(N)n1` [Example 81, N-[3-(2-{[2-amino-6-(3-chloro-2-methylphenyl)pyrimidin-4-yl]amino}ethyl)phenyl]-2,2-dimethylpropanamide], the results for the pIC50 on MTH1 and with cancer cell were more than 6.70 and more than 6.30, respectively.

As for `Cc1cccc(-c2cc(NCCc3ccc(C(N)=O)cc3)nc(N)n2)c1C` [Example 44, 4-(2-{[2-amino-6-(2,3-dimethylphenyl)pyrimidin-4-yl]amino}ethyl)benzamide], the negative-log IC50 (pIC50) (commonly the IC50 on a negative log10 scale, so that one unit is a factor of ten) at MTH1 is more than 6.70; in the test on cancer cell, more than 6.30.

With `Cc1cccc(-c2cc(NCCNc3ccc4c(c3)NC(=O)CO4)nc(N)n2)c1C` [Example 23, 6-[(2-{[2-amino-6-(2,3-dimethylphenyl)pyrimidin-4-yl]amino}ethyl)amino]-3,4-dihydro-2H-1,4-benzoxazin-3-one], the negative logarithm of the IC50 (pIC50) is more than 6.70 on MTH1 and more than 6.30 in the test on cancer cell.

As to `COC(=O)c1cnc(NCCNc2cc(-c3cccc(C)c3C)nc(N)n2)cn1` [Example 49, methyl 5-[(2-{[2-amino-6-(2,3-dimethylphenyl)pyrimidin-4-yl]amino}ethyl)amino]pyrazine-2-carboxylate], the pIC50 was more than 6.70 against MTH1 and more than 6.30 in the test on cancer cell.

On to `Cc1c(Cl)cccc1-c1cc(NCCc2ccc(NC(=O)NC(C)(C)C)cc2)nc(N)n1` [Example 113, 1-[4-[2-[[2-amino-6-(3-chloro-2-methyl-phenyl)pyrimidin-4-yl]amino]ethyl]phenyl]-3-tert-butyl-urea], for which the pIC50 on MTH1 is more than 6.70; in the test with cancer cell, more than 6.30.

In the case of `COC(=O)c1ccc(CSCCNc2cc(-c3cccc(Cl)c3C)nc(N)n2)cc1` [Example 181, methyl 4-[2-[[2-amino-6-(3-chloro-2-methyl-phenyl)pyrimidin-4-yl]amino]ethylsulfanylmethyl]benzoate], the figures for the pIC50 on MTH1 and with cancer cell were more than 6.70 and more than 6.30, respectively.

For `Cc1c(Cl)cccc1-c1cc(NCCNc2nccc(C(N)=O)n2)nc(N)n1` [Example 146, 2-[2-[[2-amino-6-(3-chloro-2-methyl-phenyl)pyrimidin-4-yl]amino]ethylamino]pyrimidine-4-carboxamide], the values for the pIC50 on MTH1 and with cancer cell were more than 6.70 and more than 6.30, respectively.

As to `Cc1c(-c2cc(NCCc3ccc(S(C)(=O)=O)cc3)nc(N)n2)cccc1C(F)(F)F` [Example 198, N4-[2-(4-methanesulfonylphenyl)ethyl]-6-[2-methyl-3-(trifluoromethyl)phenyl]pyrimidine-2,4-diamine], the values for the negative logarithm of the IC50 (pIC50) against MTH1 and in the test with cancer cell were more than 6.70 and more than 6.30, respectively.

With `Cc1c(Cl)cccc1-c1cc(NCCc2cccc(NC(=O)OC(C)C)c2)nc(N)n1` [Example 153, isopropyl N-[3-[2-[[2-amino-6-(3-chloro-2-methyl-phenyl)pyrimidin-4-yl]amino]ethyl]phenyl]carbamate], the pIC50 against MTH1 is more than 6.70; in the test with cancer cell it was more than 6.30.

For `Cc1c(Cl)cccc1-c1cc(NCCOc2ccc(/C(N)=N/O)cc2)nc(N)n1` [Example 203, (Z)-4-(2-{[2-amino-6-(3-chloro-2-methylphenyl)pyrimidin-4-yl]amino}ethoxy)-N′-hydroxybenzene-1-carboximidamide], the values for the pIC50 at MTH1 and in the test with cancer cell were more than 6.70 and more than 6.30, respectively.

Consider `Cc1cccc(-c2cc(NCCc3ccc(NS(C)(=O)=O)cc3)nc(N)n2)c1C` [Example 20, N-[4-(2-{[2-amino-6-(2,3-dimethylphenyl)pyrimidin-4-yl]amino}ethyl)phenyl]methanesulfonamide], for which the results for the negative logarithm of the IC50 (pIC50) on MTH1 and in the test with cancer cell were more than 6.70 and more than 6.30, respectively.

`CC(=O)Nc1ccc(CCNc2cc(-c3cccc(C)c3C)nc(N)n2)cc1` [Example 19, N-[4-(2-{[2-amino-6-(2,3-dimethylphenyl)pyrimidin-4-yl]amino}ethyl)phenyl]acetamide]: the results for the pIC50 against MTH1 and with cancer cell were more than 6.70 and more than 6.30, respectively.

Turning to `Cc1c(Cl)cccc1-c1cc(NCCc2ccc(C(=O)OC(C)C)cc2)nc(N)n1` [Example 178, Isopropyl 4-[2-[[2-amino-6-(3-chloro-2-methyl-phenyl)pyrimidin-4-yl]amino]ethyl]benzoate], the values for the pIC50 against MTH1 and in the test on cancer cell were more than 6.70 and more than 6.30, respectively.

Regarding `CCOC(=O)Nc1cccc(CCNc2cc(-c3cccc(Cl)c3C)nc(N)n2)c1` [Example 47, ethyl N-[3-(2-{[2-amino-6-(3-chloro-2-methylphenyl)pyrimidin-4-yl]amino}ethyl)phenyl]carbamate], the pIC50 against MTH1 was more than 6.70; in the test on cancer cell, more than 6.30.

As to `Cc1c(Cl)cccc1-c1cc(NCCc2ccc(C(N)=NO)cc2)nc(N)n1` [Example 107, 4-[2-[[2-amino-6-(3-chloro-2-methyl-phenyl)pyrimidin-4-yl]amino]ethyl]-N′-hydroxy-benzamidine], the pIC50 against MTH1 is more than 6.70; with cancer cell, more than 6.30.

Regarding `Cc1c(Cl)cccc1-c1cc(NCCc2ccc(NC(=O)N3CCOCC3)cc2)nc(N)n1` [Example 118, N-[4-[2-[[2-amino-6-(3-chloro-2-methyl-phenyl)pyrimidin-4-yl]amino]ethyl]phenyl]morpholine-4-carboxamide], the negative logarithm of the IC50 (pIC50) against MTH1 was more than 6.70; in the test on cancer cell, more than 6.30.

In the case of `Cc1c(Cl)cc(Cl)cc1-c1cc(NCCc2ccc(S(N)(=O)=O)cc2)nc(N)n1` [Example 74, 4-(2-{[2-amino-6-(3,5-dichloro-2-methylphenyl)pyrimidin-4-yl]amino}ethyl)benzene-1-sulfonamide], the pIC50 is more than 6.70 at MTH1 and more than 6.30 with cancer cell.

As to `Cc1cccc(-c2cc(NCCNc3ccc(S(N)(=O)=O)c(C(F)(F)F)c3)nc(N)n2)c1C` [Example 29, 4-[(2-{[2-amino-6-(2,3-dimethylphenyl)pyrimidin-4-yl]amino}ethyl)amino]-2-(trifluoromethyl)benzene-1-sulfonamide], the pIC50 is more than 6.70 against MTH1 and more than 6.30 in the test on cancer cell.

As to `Cc1c(Cl)cccc1-c1cc(NCCc2cccc(NC(=O)OCC(C)(C)C)c2)nc(N)n1` [Example 155, 2,2-dimethylpropyl N-[3-[2-[[2-amino-6-(3-chloro-2-methyl-phenyl)pyrimidin-4-yl]amino]ethyl]phenyl]carbamate], the pIC50 against MTH1 is more than 6.70; in the test on cancer cell, more than 6.30.

Take `CCOC(=O)Nc1ccc(CCNc2cc(-c3cccc(C)c3C)nc(N)n2)cc1` [Example 31, ethyl N-[4-(2-{[2-amino-6-(2,3-dimethylphenyl)pyrimidin-4-yl]amino}ethyl)phenyl]carbamate]: the pIC50 against MTH1 was more than 6.70; in the test on cancer cell, more than 6.30.

Take `Cc1cccc(-c2cc(NCCNc3cccc(S(C)(=O)=O)c3)nc(N)n2)c1C` [Example 40, 6-(2,3-dimethylphenyl)-4-N-{2-[(3-methanesulfonylphenyl)amino]ethyl}pyrimidine-2,4-diamine]: the pIC50 against MTH1 is more than 6.70; in the test on cancer cell, more than 6.30.

As for `Cc1c(Cl)cccc1-c1cc(NCCSc2ccc(S(N)(=O)=O)cn2)nc(N)n1` [Example 180, 6-[2-[[2-amino-6-(3-chloro-2-methyl-phenyl)pyrimidin-4-yl]amino]ethylsulfanyl]pyridine-3-sulfonamide], the negative logarithm of the IC50 (pIC50) against MTH1 is more than 6.70; in the test with cancer cell, more than 6.30.

Regarding `CCOC(=O)c1ccc(NCCNc2cc(-c3cccc(C)c3C)nc(N)n2)nc1` [Example 28, ethyl 6-[(2-{[2-amino-6-(2,3-dimethylphenyl)pyrimidin-4-yl]amino}ethyl)amino]pyridine-3-carboxylate], the negative logarithm of the IC50 (pIC50) against MTH1 was more than 6.70; with cancer cell, more than 6.30.

With `CC1(C)Nc2cc(NCCNc3cc(-c4cccc(Cl)c4Cl)nc(N)n3)ccc2OC1=O` [Example 104, 6-[2-[[2-amino-6-(2,3-dichlorophenyl)pyrimidin-4-yl]amino]ethylamino]-3,3-dimethyl-4H-1,4-benzoxazin-2-one], the pIC50 on MTH1 is more than 6.70; in the test with cancer cell it was more than 6.30.

For `Cc1c(Cl)cccc1-c1cc(NCCNc2ccc3c(c2)NC(=O)CO3)nc(N)n1` [Example 35, 6-[(2-{[2-amino-6-(3-chloro-2-methylphenyl)pyrimidin-4-yl]amino}ethyl)amino]-3,4-dihydro-2H-1,4-benzoxazin-3-one], the pIC50 against MTH1 was more than 6.70; in the test with cancer cell, more than 6.30.

Regarding `Cc1c(Cl)cccc1-c1cc(NCCc2ccc(NC(=O)C(C)(C)C)cc2)nc(N)n1` [Example 59, N-[4-(2-{[2-amino-6-(3-chloro-2-methylphenyl)pyrimidin-4-yl]amino}ethyl)phenyl]-2,2-dimethylpropanamide], the pIC50 is more than 6.70 against MTH1 and more than 6.30 with cancer cell.

In the case of `Cc1c(Cl)cccc1-c1cc(NCCc2ccc(NS(=O)(=O)CC(C)C)cc2)nc(N)n1` [Example 87, N-[4-(2-{[2-amino-6-(3-chloro-2-methylphenyl)pyrimidin-4-yl]amino}ethyl)phenyl]-2-methylpropane-1-sulfonamide], the negative logarithm of the IC50 (pIC50) on MTH1 is more than 6.70; in the test with cancer cell, more than 6.30.

In the case of `Cc1c(Cl)cccc1-c1cc(NCCNc2ncc(C(N)=O)c(C(F)(F)F)n2)nc(N)n1` [Example 159, 2-[2-[[2-amino-6-(3-chloro-2-methyl-phenyl)pyrimidin-4-yl]amino]ethylamino]-4-(trifluoromethyl)pyrimidine-5-carboxamide], the pIC50 on MTH1 was more than 6.70; in the test with cancer cell, more than 6.30.

As to `Cc1c(Cl)cccc1-c1cc(NCCCNc2ccc(C(N)=O)cc2)nc(N)n1` [Example 143, 4-[3-[[2-amino-6-(3-chloro-2-methyl-phenyl)pyrimidin-4-yl]amino]propylamino]benzamide], the pIC50 against MTH1 is more than 6.70; in the test with cancer cell it was more than 6.30.

As for `Cc1cccc(-c2cc(NCCNc3ccnc(N)n3)nc(N)n2)c1C` [Example 126, 4-N-(2-{[2-amino-6-(2,3-dimethylphenyl)pyrimidin-4-yl]amino}ethyl)pyrimidine-2,4-diamine], the negative logarithm of the IC50 (pIC50) was more than 6.70 against MTH1 and more than 6.30 in the test on cancer cell.
